Results taken from patent US20070197590A1, “SUBSTITUTED DIPIPERIDINE CCR2 ANTAGONISTS” (priority 2006, published 2007).
Read-outs that look alike come from different tables or passages of the source.

Experiments:
[1] = target: T1, CCR2 (Homo sapiens, UniProt P41597); experiment: MCP-1 Receptor Binding Assay in THP-1 Cells; conditions: THP-1 cells, 0.5 nM 125I labeled MCP-1, 2 hours at 30° C.; read-out: Inhibition of MCP-1 Binding IC50
T1 construct: host or cells: THP-1 cells
T1 sequence (P41597 1-360 isoform P41597-2): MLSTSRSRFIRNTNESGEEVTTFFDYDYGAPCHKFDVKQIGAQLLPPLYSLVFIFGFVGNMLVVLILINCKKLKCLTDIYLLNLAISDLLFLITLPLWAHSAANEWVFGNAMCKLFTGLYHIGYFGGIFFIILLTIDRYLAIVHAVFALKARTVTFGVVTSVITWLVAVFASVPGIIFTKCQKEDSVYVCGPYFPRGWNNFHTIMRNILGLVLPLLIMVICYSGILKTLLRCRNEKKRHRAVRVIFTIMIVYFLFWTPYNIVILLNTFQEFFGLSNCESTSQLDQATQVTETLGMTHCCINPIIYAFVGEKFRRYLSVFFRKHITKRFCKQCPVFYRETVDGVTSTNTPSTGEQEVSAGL
Summary of the method: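 Whole THP-1 cells incubated 2 h at 30° C with 0.5 nM 125I-MCP-1 and varying compound concentrations; bound radioactivity harvested on filters and counted by scintillation. Nonspecific binding with 1 μM cold MCP-1; IC50 for inhibition of binding versus vehicle.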

[2] = tested on: MCP-1 induced chemotaxis of THP-1 cells; experiment: MCP-1 Induced Chemotaxis in THP-1 Cells; type: cell-based; conditions: Homo sapiens, MCP-1 0.01 μg/mL, 3 hours at 37° C., read-out: Inhibition of MCP-1 Induced Chemotaxis IC50
Protocol: MCP-1 induced chemotaxis was run in a 24-well chemotaxis chamber. MCP-1 (0.01 μg/mL) was added to the lower chamber and 100 μL of THP-1 cells (1×10^7 cell/mL) was added to the top chamber. Varying concentrations of test compound were added to the top and bottom chambers. Cells were allowed to chemotax for 3 hours at 37° C. and 5% CO2. An aliquot of the cells that had migrated to the bottom chamber was taken and counted then compared to vehicle.
Table 3 lists IC50 values for inhibition of MCP-1 induced chemotaxis.

[3] = tested on: MCP-1 induced calcium ion influx in THP-1 cells; experiment: MCP-1 Induced Calcium Mobilization in THP-1 Cells; type: cell-based; conditions: for IC50: 0.2 μM MCP-1, FLIPR, read-out: Inhibition of MCP-1 Induced Calcium Ion Influx IC50
Summary of the method: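 Fluo-3-loaded (5 μM, 45 min) THP-1 cells preincubated 15 min with compound. Calcium change after 0.2 μM MCP-1 addition read by FLIPR relative to vehicle; IC50 values derived.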

[4] = Homo sapiens, THP-1, THP-1 cells

IC50 [1] [nM]	IC50 [2] [nM]	IC50 [3, 4] [nM]	IC50 ([3]; THP-1 cells) [nM]	SMILES	inhibition at 25 µM ([3]; Homo sapiens, THP-1, test concentration of 25 μM, given where an IC50 value was not obtained, read-out: Inhibition of MCP-1 Induced Calcium Ion Influx, percent inhibition) [%]
310	290	380	–	O=C(O)C(CC1CCN(C(=O)C=Cc2ccc(Cl)c(Cl)c2)CC1)N1CCC(c2c[nH]c3ccccc23)CC1 (stereo not drawn) [Compound 60, 3-{1-[3-(3,4-dichloro-phenyl)-acryloyl]-piperidin-4-yl}-2-[4-(1H-indol-3-yl)-piperidin-1-yl]-propionic acid]	–
830	240	2800	–	O=C(O)C(CC1CCN(C(=O)C=Cc2cc(F)cc(F)c2)CC1)N1CCC(c2c[nH]c3ccccc23)CC1 (stereo not drawn) [Compound 61, 3-{1-[3-(3,5-difluoro-phenyl)-acryloyl]-piperidin-4-yl}-2-[4-(1H-indol-3-yl)-piperidin-1-yl]-propionic acid]	–
80	250	40	–	COc1ccc(C2CCN(CC(N)C3CCN(C(=O)/C=C/c4cc(F)c(F)c(F)c4)CC3)CC2)cc1 (stereo not drawn) [Compound 65]	–
240	700	300	–	COC(=O)NC(CN1CCC(c2ccc(OC)cc2)CC1)C1CCN(C(=O)C=Cc2cc(F)c(F)c(F)c2)CC1 (stereo not drawn) [Compound 67, (2-[4-(4-methoxy-phenyl)-piperidin-1-yl]-1-{1-[3-(3,4,5-trifluoro-phenyl)-acryloyl]-piperidin-4-yl}-ethyl)-carbamic acid methyl ester]	–
180	10	80	–	O=C(/C=C/c1cc(F)c(F)c(F)c1)N1CCC(O)(C(O)CN2CCC(c3c[nH]c4ccccc34)CC2)CC1 (stereo not drawn) [Compound 70]	–
130	30	1	–	O=C(/C=C/c1cc(Cl)cc(Cl)c1)N1CCC(O)(C(O)CN2CCC(c3c[nH]c4ccccc34)CC2)CC1 (stereo not drawn) [Compound 73]	–
40	80	2	–	O=C(/C=C/c1cc(F)cc(Cl)c1)N1CCC(O)(C(O)CN2CCC(c3c[nH]c4ccccc34)CC2)CC1 (stereo not drawn) [Compound 74]	–
350	30	5	–	O=C(/C=C/c1ccc(Cl)c(Cl)c1)N1CCC(O)(C(O)CN2CCC(c3c[nH]c4ccccc34)CC2)CC1 (stereo not drawn) [Compound 75]	–
370	210	40	–	O=C(/C=C/c1ccc(F)c(F)c1)N1CCC(O)(C(O)CN2CCC(c3c[nH]c4ccccc34)CC2)CC1 (stereo not drawn) [Compound 78]	–
200	90	6	–	O=C(/C=C/c1ccc(F)c(Br)c1)N1CCC(O)(C(O)CN2CCC(c3c[nH]c4ccccc34)CC2)CC1 (stereo not drawn) [Compound 80]	–
150	40	6	–	O=C(/C=C/c1ccc(Cl)c(Cl)c1)N1CCC(C(O)CN2CCC(c3nc4ccccc4[nH]3)CC2)CC1 (stereo not drawn) [Compound 85]	–
80	50	70	–	O=C(/C=C/c1cc(F)c(F)c(F)c1)N1CCC(C(O)CN2CCC(c3nc4ccccc4[nH]3)CC2)CC1 (stereo not drawn) [Compound 86]	–
170	30	980	–	COc1ccc(C2CCN(CC(O)C3(O)CCN(C(=O)/C=C/c4cc(F)c(F)c(F)c4)CC3)CC2)cc1 (stereo not drawn) [Compound 88]	–
310	120	9200	–	COc1ccc(C2CCN(CC(O)C3(O)CCN(C(=O)/C=C/c4ccc(F)c(F)c4)CC3)CC2)cc1 (stereo not drawn) [Compound 93]	–
350	100	900	–	COc1ccc(C2CCN(CC(O)C3(O)CCN(C(=O)/C=C/c4cc(F)cc(F)c4)CC3)CC2)cc1 (stereo not drawn) [Compound 94]	–
290	40	4300	–	COc1ccc(C2CCN(CC(O)C3CCN(C(=S)Nc4cc(F)cc(F)c4)CC3)CC2)cc1 (stereo not drawn) [Compound 107, 4-{1-hydroxy-2-[4-(4-methoxy-phenyl)-piperidin-1-yl]-ethyl}-piperidine-1-carbothioic acid (3,5-difluoro-phenyl)-amide]	–

IC50 [1] [nM]	IC50 [2] [nM]	IC50 [3, 4] [nM]	IC50 ([3]; THP-1 cells) [nM]	SMILES	inhibition at 25 µM ([3]; Homo sapiens, THP-1, test concentration of 25 μM, given where an IC50 value was not obtained, read-out: Inhibition of MCP-1 Induced Calcium Ion Influx, percent inhibition) [%]
90	70	–	4300	COc1ccc(C2CCN(CC(O)C3CCN(C(=S)Nc4ccc(Br)c(F)c4)CC3)CC2)cc1 (stereo not drawn) [Compound 110, 4-{1-hydroxy-2-[4-(4-methoxy-phenyl)-piperidin-1-yl]-ethyl}-piperidine-1-carbothioic acid (4-bromo-3-fluoro-phenyl)-amide]	–
110	300	1900	–	O=C(/C=C/c1cc(F)c(F)c(F)c1)N1CCC(O)(C(O)CN2CCC(c3ccc(F)cc3)CC2)CC1 (stereo not drawn) [Compound 128]	–
100	190	2400	–	O=C(/C=C/c1cc(F)cc(F)c1)N1CCC(O)(C(O)CN2CCC(c3ccc(F)cc3)CC2)CC1 (stereo not drawn) [Compound 130]	–
140	150	210	–	O=C(/C=C/c1cc(F)c(F)c(F)c1)N1CCC(O)(C(O)CN2CCC(c3ccc(C(F)(F)F)cc3)CC2)CC1 (stereo not drawn) [Compound 136]	–
255	170	1300	–	O=C(/C=C/c1ccc(F)c(F)c1)N1CCC(O)(C(O)CN2CCC(c3ccc(C(F)(F)F)cc3)CC2)CC1 (stereo not drawn) [Compound 137]	–
210	60	810	–	O=C(/C=C/c1cc(F)cc(F)c1)N1CCC(O)(C(O)CN2CCC(c3ccc(C(F)(F)F)cc3)CC2)CC1 (stereo not drawn) [Compound 138]	–
260	260	–	–	O=C(Nc1cc(F)cc(F)c1)N1CCC(O)(C(O)CN2CCC(c3ccc(C(F)(F)F)cc3)CC2)CC1 (stereo not drawn) [Compound 142, 4-hydroxy-4-{1-hydroxy-2-[4-(4-trifluoromethyl-phenyl)-piperidin-1 yl]-ethyl}-piperidine-1-carboxylic acid (3,5-difluoro-phenyl)-amide]	68
40	160	510	–	O=C(/C=C/c1cc(Cl)cc(Cl)c1)N1CCC(O)(C(O)CN2CCC(c3c[nH]c4ccc(N5CCOCC5)cc34)CC2)CC1 (stereo not drawn) [Compound 151]	–
100	180	660	–	O=C(/C=C/c1cc(F)c(F)c(F)c1)N1CCC(O)(C(O)CN2CCC(c3c[nH]c4ccc(F)cc34)CC2)CC1 (stereo not drawn) [Compound 155]	–
120	360	4000	–	O=C(/C=C/c1ccc(F)c(F)c1)N1CCC(O)(C(O)CN2CCC(c3c[nH]c4ccc(F)cc34)CC2)CC1 (stereo not drawn) [Compound 156]	–
150	120	1900	–	O=C(/C=C/c1cc(F)cc(F)c1)N1CCC(O)(C(O)CN2CCC(c3c[nH]c4ccc(F)cc34)CC2)CC1 (stereo not drawn) [Compound 157]	–
0.2	5	120	–	O=C(/C=C/c1cc(F)c(F)c(F)c1)N1CCC(O)(C(O)CN2CCC(c3ccc(Cl)cc3)CC2)CC1 (stereo not drawn) [Compound 163]	–
50	2	60	–	O=C(/C=C/c1cc(F)cc(F)c1)N1CCC(O)(C(O)CN2CCC(c3ccc(Cl)cc3)CC2)CC1 (stereo not drawn) [Compound 164]	–
50	120	900	–	O=C(Nc1ccc(Cl)c(Cl)c1)N1CCC(O)(C(O)CN2CCC(c3ccc(Cl)cc3)CC2)CC1 (stereo not drawn) [Compound 165, 4-{2-[4-(4-chloro-phenyl)-piperidin-1-yl]-1-hydroxy-ethyl}-4-hydroxy-piperidine-1-carboxylic acid (3,4-dichloro-phenyl)-amide]	–
460	4	940	–	O=C(Nc1ccc(Cl)c(Cl)c1)N1CCC(O)(C(O)CN2CCC(c3c[nH]c4ccc(F)cc34)CC2)CC1 (stereo not drawn) [Compound 167, 4-{2-[4-(5-fluoro-1H-indol-3-yl)-piperidin-1-yl]-1-hydroxy-ethyl}-4-hydroxy-piperidine-1-carboxylic acid (3,4-dichloro-phenyl)-amide]	–
270	180	2100	–	O=C(Nc1ccc(Cl)c(Cl)c1)N1CCC(O)(C(O)CN2CCC(c3c[nH]c4ccc(N5CCOCC5)cc34)CC2)CC1 (stereo not drawn) [Compound 181, 4-hydroxy-4-{1-hydroxy-2-[4-(5-morpholin-4-yl-1H-indol-3-yl)-piperidin-1-yl]-ethyl}-piperidine-1-carboxylic acid (3,4-dichloro-phenyl)-amide]	–
